# Test results published in ChEMBL document CHEMBL3507680, “University of Dundee, Gates Library screen for HepG2 cell viability”.
# Experiment: Human HepG2 cell viability assay in 384 well format
# Format: toxicity, cell-based
# Design: dose 125 nL, time 70.5 hour; cytotoxicity at 70.5 h: concentration not given beside the values
# Settings: HepG2 cells, read-out: Inhibition
row,SMILES,cytotoxicity at 70.5 h [%]
1,Cc1ccc(CN2CCC3(CCN(c4cnn(C)c4)C3=O)C2)s1 (stereo unspecified),13.4
2,CN1CCS(=O)(=O)[C@@H]2CCN(C(=O)c3ccccc3)CC[C@@H]21,-9.02
3,Cc1cccc(CN2CCn3cc(Cn4cccn4)nc3C2)n1,-12.9
4,C=C(C)COc1cccc(CNCc2nc3ccccc3c(=O)[nH]2)c1,0.0265
5,Cc1ccccc1Cc1nc(CSc2nnc(N)n2C)no1,-17.8
6,CCOc1cccc(C(C)NCc2c(C)nn(C)c2N(C)C)c1 (stereo unspecified),-8.02
7,CC(=O)N1CCC2(CC1)COCCN2Cc1ccc(F)cc1,-0.157
8,CN1CCN(Cc2nnc(C3CCN(C(CO)CO)CC3)n2C)CC1,-23.4
9,O=C(Cc1c[nH]c2ccccc12)N1CCC(Nc2cccnc2)CC1,-0.82
10,CCOCCCNC(=O)c1cc(C(C)C)nc(N2CCCCCC2)n1,26.5
11,CC(C)c1ccccc1OCCNC(=O)N1CCC(CC(N)=O)CC1,-4.04
12,COc1cccc(CCC(=O)Nc2c(C)nn(C)c2C)c1OC,-10.8
13,CN1N=C(C(=O)N(Cc2ccco2)C2CCCC2)CCC1=O,-9.57
14,Cc1csc(N2CCCN(C(=O)c3cccs3)CC2)n1,3.15
15,CC(=O)Nc1nc(CN2CCn3c(nnc3C(C)C)C2)cs1,-4.17
16,CCc1cc(NC2CCS(=O)(=O)C2)nc(N2CCCCC2)n1 (stereo unspecified),-3.25
17,COc1ncccc1CNC(=O)C1=NN(c2ccccc2)C(=O)CN1,0.82
18,Cc1cccc(OCCC(=O)N(C)CCC#N)c1C,-8.74
19,O=C([C@@H]1C[C@@H]2CCN(C3CCOCC3)C[C@@H]2O1)N1CCOCC1,-7.48
20,Cc1nnc2n1CCN(C(C)c1nnc(-c3cccs3)o1)C2 (stereo unspecified),-8.71
21,CCn1nc(C)c(NC(=O)CN2CC[C@H](CO)[C@@H](O)C2)c1C,-11.7
22,O=S(=O)(NCC1COc2ccccc2C1)N1CCCCCC1 (stereo unspecified),-7.48
23,CCc1nc(CN2CCCN(c3nccs3)CC2)no1,6.55

row,SMILES,cytotoxicity at 70.5 h [%]
1,CCC(CNC1CCN(C(=O)N(C)C)CC1)Oc1ccccc1C (stereo unspecified),27.1
2,COCCCNC(=O)C(C)(C)N(C)C1CCCC1,-0.184
3,CC1c2ncc(Cn3cncn3)n2CCN1C(=O)[C@H]1CCCO1 (stereo partly specified),-8.44
4,O=C(NCCc1ccsc1)c1ccoc1,5.67
5,CC(C)c1ccc(OCCC(=O)NCCC(=O)N(C)C)cc1,-8.34
6,COc1ccc(C(=O)O)cc1-c1cccc(C(C)N(C)C)c1 (stereo unspecified),0.229
7,CC(C)c1cc(NC(=O)CN2CCC(N3CCCCC3)CC2)on1,-1.37
8,Cc1cc(C(=O)NCc2ccc(N3CCN(C)CC3)nc2)c(C)s1,-12.2
9,CNC(=O)c1nc(COc2c(C)occc2=O)no1,-14.3
10,O=C(NCCC1COc2ccccc2O1)c1ccc(-c2cn[nH]c2)nc1 (stereo unspecified),4.75
11,Cc1ccc(CNC(c2ccc(F)cc2)c2nccn2C)o1 (stereo unspecified),-7.32
12,Nc1nnc(SCC(=O)c2cc3c(cc2Cl)NC(=O)C3)s1,-25.4
13,COC[C@@H]1CC[C@H]2[C@H](CCN2C(=O)c2ccncc2F)O1,-7.3
14,CC(NC(=O)N1CCC2(C1)OCCO2)c1ccc(F)cc1Cl (stereo unspecified),4.97
15,CCn1cncc1Cn1ncc2ccccc2c1=O,-7.38
16,Cn1ccc(CN2CCOCC23CCNCC3)n1,-6.05
17,COCCN1CCO[C@@H]2CN(Cc3ccc(C)o3)C[C@@H]2C1,1.59
18,Cc1nn(C)c2ncc(CN3CCCCCC3)cc12,-5.07
19,CCNS(=O)(=O)c1ccc(C)c(C(=O)N(CCC#N)Cc2ccco2)c1,19.1
20,O=C1CCC(C(=O)N2CCOC(Cc3cccc4ccccc34)C2)=NN1 (stereo unspecified),18.7
21,COC(=O)c1cccc2nc([C@H]3CCN(Cc4ccccc4)C3)oc12,-11.8
22,Cc1ccc(S(=O)(=O)N2CCN(CCC(N)=O)CC2)s1,-7.66
23,Cc1cc(C2CCCN(S(=O)(=O)c3cn(C)cn3)C2)ccn1 (stereo unspecified),-5.97
